Laboratory results from US20120295920A1, “5-AMINO-4-HYDROXYPENTOYL AMIDES” (priority 2009, published 2012).
Like-named read-outs stand apart in the source and are kept apart here.

What was measured:
mock-infected MT4 cells = test: General toxicity assay on mock-infected MT4 cells with CMV-EGFP reporter (CC50); assay type: cell-based
[1] = system: HIV-1 Strain B (M046I, I050V); test: microbe, parasite or virus in culture; assay type: cell-based; settings: clinical isolate Strain B; read-out: B EC50
Procedure: (§1) MT4-LTR-EGFP cells were obtained by transfecting MT4 cells with a selectable construct encompassing the sequences coding for the HIV long terminal repeat (LTR) as a promoter for the expression of enhanced green fluorescent protein (EGFP) and subsequent selection of permanently transfected cells.
(§2) The antiviral activity on different HIV-1 strains, was determined in a cell-based virus replication assay. Here MT4-LTR-EGFP cells (150,000 cells/ml) are infected (multiplicity of infection [MOI] of 0.0025) in the presence or absence of different inhibitor concentrations. Two methodologies for read-out were used, either quantification of GFP-fluoresence on day 3 post-infection, or quantification of cell-viability using rezazurin (as described by Fields, R. D., and M. V. Lancaster (1993) Am. Biotechnol. Lab. 11:48-50) on day 4 post infection.
(§3) In the following Table, Strains A, B, and C are clinical isolates that include the following protease inhibitor resistance mutations in the protease domain (background mutations are not mentioned).

[2] = system: HIV-1 Strain C (G048G/V, V082A); test: microbe, parasite or virus in culture; assay type: cell-based; settings: clinical isolate Strain C; read-out: C EC50
Procedure: as §1, §2, §3

[3] = system: HIV-1 Strain A (M046I, I084V); test: microbe, parasite or virus in culture; assay type: cell-based; settings: clinical isolate Strain A; read-out: A EC50
Procedure: as §1, §2, §3

HIV-1 IIIB = test: 50% HS-Rezazurin: antiviral assay in the presence of 50% human serum, MT-4 cells, resazurin cell viability; assay type: cell-based
Procedure: For the Antiviral assay in the presence of 50% human serum MT-4 cells were infected with HIV-1 IIIB at a MOI of 0.001 to 0.01 CCID50/cell in RPMI1640 medium. Following 1 h of incubation, cells were washed and plated into a 96-well plate containing serial dilutions of compound in the presence of 10% fetal calf serum (FCS), or 50% human serum. After 4 days incubation, the EC50 in the presence of 50% human serum was determined by a cell viability assay using resazurin.
The last column lists the results for the wild-type strain IIB in the presence of 50% human serum MT-4 cells.

HIV-1 wild-type strain = test: General antiviral assay, cell-based virus replication in MT4-LTR-EGFP cells, wild-type strain; settings: wild-type strain IIIB, MT4-LTR-EGFP cells
Procedure: as §1, §2

[4] = MT4LTR cells, read-out: TOX-MT4LTR (CC50)
[5] = mock-infected MT4 cells with CMV-EGFP reporter, read-out: TOX-MT4CMV (CC50)

SMILES: COC(=O)N[C@H](C(=O)N[C@@H](Cc1ccc(-c2ccc(OC)nc2)cc1)[C@@H](O)C[C@@H](Cc1ccccc1Cl)C(=O)N[C@H]1c2cc(F)ccc2OC[C@H]1O)C(C)(C)C [Compound 67]
- CC50 (mock-infected MT4 cells; [4]): > 32000 nM
- CC50 (mock-infected MT4 cells; [5]): > 32000 nM
- EC50 [1]: 1.2 nM
- EC50 [2]: 1 nM
- EC50 [3]: 2.1 nM
- EC50 (HIV-1 IIIB): 5.3 nM
- EC50 (HIV-1 wild-type strain): 2.9 nM

SMILES: COc1ccc(-c2ccc(C[C@H](NC(=O)O[C@H]3CO[C@H]4OCC[C@H]43)[C@@H](O)C[C@@H](Cc3ccccc3F)C(=O)N[C@H]3c4ccsc4CC[C@H]3O)cc2)cn1 [Compound 74]
- CC50 (mock-infected MT4 cells; [4]): > 32000 nM
- EC50 [1]: 0.6 nM
- EC50 [2]: 0.4 nM
- EC50 [3]: 0.8 nM
- EC50 (HIV-1 IIIB): 3.5 nM
- EC50 (HIV-1 wild-type strain): 0.9 nM

SMILES: COC(=O)N[C@H](C(=O)N[C@@H](Cc1ccc(-c2ccc(OC)nc2)cc1)[C@@H](O)C[C@@H](Cc1cccc(OC)c1)C(=O)N[C@H]1c2cc(Cl)ccc2OC[C@H]1O)C(C)(C)C [Compound 27]
- CC50 (mock-infected MT4 cells; [4]): > 32000 nM
- CC50 (mock-infected MT4 cells; [5]): > 32000 nM
- EC50 [1]: 2.2 nM
- EC50 [2]: 1.6 nM
- EC50 [3]: 2.8 nM
- EC50 (HIV-1 IIIB): 10.7 nM
- EC50 (HIV-1 wild-type strain): 3.1 nM

SMILES: COC(=O)NC(C(=O)NC(Cc1ccc(-c2cc(C)nc(C3CC3)c2)cc1)C(O)CC(Cc1ccccc1F)C(=O)NC1c2cc(Cl)ccc2OCC1O)C(C)(C)C (stereo not shown) [Compound 21]
- CC50 (mock-infected MT4 cells; [5]): > 32000 nM
- EC50 [1]: 3.2 nM
- EC50 [2]: 3.6 nM
- EC50 [3]: 3.8 nM
- EC50 (HIV-1 IIIB): 34.9 nM
- EC50 (HIV-1 wild-type strain): 6.1 nM

SMILES: COC(=O)NC(C(=O)NC(Cc1ccc(-c2ccc(N(C)C)nc2)cc1)C(O)CC(Cc1cccc(Cl)c1)C(=O)NC1c2cc(F)ccc2OCC1O)C(C)(C)C (stereo not shown) [Compound 13]
- CC50 (mock-infected MT4 cells; [5]): > 32000 nM
- EC50 [1]: 3 nM
- EC50 [2]: 2.4 nM
- EC50 [3]: 4.6 nM
- EC50 (HIV-1 IIIB): 22.6 nM
- EC50 (HIV-1 wild-type strain): 4.7 nM

SMILES: COC(=O)NC(C(=O)NC(Cc1ccc(-c2ccc(OC)nc2)cc1)C(O)CC(Cc1cccc(OC)c1)C(=O)NC1c2ccccc2OCC1O)C(C)(C)C (stereo not shown) [Compound 17]
- CC50 (mock-infected MT4 cells; [5]): > 32000 nM
- EC50 [1]: 1.2 nM
- EC50 [2]: 1.1 nM
- EC50 [3]: 2 nM
- EC50 (HIV-1 IIIB): 6.4 nM
- EC50 (HIV-1 wild-type strain): 1.9 nM

SMILES: COC(=O)N[C@H](C(=O)N[C@@H](Cc1ccc(-c2ccc(OC)nc2)cc1)[C@@H](O)C[C@@H](Cc1ccccc1F)C(=O)N[C@H]1c2cccc(Cl)c2OC[C@H]1O)C(C)(C)C [Compound 45]
- CC50 (mock-infected MT4 cells; [4]): > 32000 nM
- EC50 [1]: 0.8 nM
- EC50 [2]: 0.7 nM
- EC50 [3]: 1.2 nM
- EC50 (HIV-1 IIIB): 5.2 nM
- EC50 (HIV-1 wild-type strain): 3.5 nM

SMILES: COC(=O)NC(C(=O)NC(Cc1ccc(-c2ccc(N(C)C)nc2)cc1)C(O)CC(Cc1ccccc1F)C(=O)NC1c2cc(Cl)ccc2OCC1O)C(C)(C)C (stereo not shown) [Compound 8]
- CC50 (mock-infected MT4 cells; [4]): > 49000 nM
- CC50 (mock-infected MT4 cells; [5]): > 32000 nM
- EC50 [1]: 1.2 nM
- EC50 [2]: 1 nM
- EC50 [3]: 2 nM
- EC50 (HIV-1 IIIB): 12.4 nM
- EC50 (HIV-1 wild-type strain): 1.8 nM

SMILES: COC(=O)NC(C(=O)NC(Cc1ccc(-c2ccc(OC)nc2)cc1)C(O)CC(Cc1ccccc1F)C(=O)NC1c2cc(F)cc(C)c2OCC1O)C(C)(C)C (stereo not shown) [Compound 102]
- CC50 (mock-infected MT4 cells; [4]): > 32000 nM
- EC50 [1]: 3.3 nM
- EC50 [2]: 1.5 nM
- EC50 [3]: 5.4 nM
- EC50 (HIV-1 IIIB): 6.8 nM
- EC50 (HIV-1 wild-type strain): 2.3 nM

SMILES: Cc1cccc(C)c1OCC(=O)N[C@@H](Cc1ccccc1)[C@@H](O)C[C@H](Cc1ccccc1)NC(=O)[C@H](C(C)C)N1CCCNC1=O [LPV]
- CC50 (mock-infected MT4 cells; [4]): > 32000 nM
- CC50 (mock-infected MT4 cells; [5]): 20000 nM
- EC50 [1]: 320 nM
- EC50 [2]: 31 nM
- EC50 [3]: 110 nM
- EC50 (HIV-1 IIIB): 61 nM
- EC50 (HIV-1 wild-type strain): 13 nM

SMILES: COC(=O)N[C@H](C(=O)N[C@@H](Cc1ccc(-c2ccc(OC)nc2)cc1)[C@@H](O)C[C@@H](Cc1ccccc1F)C(=O)N[C@H]1c2cc(Cl)cc(F)c2OC[C@H]1O)C(C)(C)C [Compound 61]
- CC50 (mock-infected MT4 cells; [4]): > 32000 nM
- EC50 [1]: 2.1 nM
- EC50 [2]: 1.6 nM
- EC50 [3]: 3 nM
- EC50 (HIV-1 IIIB): 16.1 nM
- EC50 (HIV-1 wild-type strain): 4.1 nM

SMILES: COC(=O)N[C@H](C(=O)N[C@@H](Cc1ccc(-c2cccc(OC)n2)cc1)[C@@H](O)C[C@@H](Cc1ccccc1F)C(=O)N[C@H]1c2cc(Cl)ccc2OC[C@H]1O)C(C)(C)C [Compound 30]
- CC50 (mock-infected MT4 cells; [5]): > 32000 nM
- EC50 [1]: 2.8 nM
- EC50 [2]: 2.5 nM
- EC50 [3]: 5.9 nM
- EC50 (HIV-1 IIIB): 17.4 nM
- EC50 (HIV-1 wild-type strain): 4 nM
